These results are taken from US20260335453A1, “ISOINDOLINONE-GLUTARIMIDE ANTIBODY CONJUGATES, AND USES THEREOF” (FIREFLY BIO, INC., priority 2023, published 2026).

Structures are written as SMILES.

The subject of experiment [1] is CAL51 cells. Description: Cell proliferation (Cell Titer Glow), CAL51. In kind it is cell-based. The following applies: Homo sapiens, CAL-51; IG compounds, cell killing, 72 h. The protocol: Exemplary isoindolinone-glutarimide (IG) compounds of Table 1a, 1b and 1c were prepared and characterized according to the Examples herein. Certain exemplary IG compounds of(Table 1a were tested for their effects in inhibiting cellular proliferation, including CAL1 WSU-DLCL2, NCI-N87 and SKBR3. CAL51 is a human breast adenocarcinoma cell line with triple-negative status for expression of estrogen, progesterone and HER2 receptors. WSU-DLCL2 is a human B-Cell non-Hodgkin lymphoma cell line that expresses high levels of CD22. NCI-N87 is a human epithelial cell line established from a gastric carcinoma; SKBR3 is a human epithelial cell line established from a breast adenocarcinoma; both NCI-N87 and SKBR3 cell lines express high levels of HER2 receptor. […]
One day prior to treatment with compounds or IGAC, cells were plated in white 96-well plates (SKBR: 3000 cells/well; CAL-51: 4000 cells/well). Compounds or ADCs were added in a serial-dilution manner reaching the indicated concentrations. Plates were incubated at 37 degrees for 96h (ADCs) or 72h (compounds) whereafter a 1:10 dilution of Cell Titer Glow was used to measure relative cell numbers after 10 min of incubation at room temperature.
On the technique in general: In ATP-based viability assays light output follows the ATP content of the culture.

Experiment [2] deals with CAL51 cells. Briefly: Degradation assay evaluated by immunofluorescence staining, CAL51. Type of experiment: cell-based, human. The following applies: for Dmax / DC50: Homo sapiens, CAL-51, CAL51, 6 h; for Dmax (%) CAL51: CAL51, 6 h. How it is done:
One day prior to treatment with compounds, black 96 well plates were coated with fibronectin (0.2 μg/ml in PBS) for 45 min at room temperature and subsequently washed with PBS. CAL-51 or SKBR3 cells were seeded at 30K cells/well (1001) and incubated overnight at 37° C. whereafter compounds were added reaching indicated concentrations. 6 h after treatment the medium was removed, cells were washed with PBS and fixed with 10% formalin for 20 mins at room temperature. Following two PBS washes (150 μl), cells were permeabilized in 0.1% Triton X-100 in PBS for 8 mins at room temperature and subsequently washed again twice with PBS. Cells were blocked thereafter with 1% BSA in PBS for 45 mins. Primary antibody was diluted in blocking buffer and incubated with the cells overnight at 4° C. After three washes with PBS, cells were incubated with secondary antibody for 1 h at RT, washed and subsequently images were taken on an Operetta High-Content Imager.
For the determination of the DC50, a custom algorithm implemented in the PerkinElmer image analysis software Harmony-Acapella® was used.

What is called IC50 is the point on the concentration scale where inhibition reaches its midpoint. A higher IC50 goes with weaker potency. What is called Dmax is the largest share of the target that was removed. Low values mean shallow degradation, high ones deep degradation. The term DC50 denotes the midpoint of the concentration-degradation curve. A lower DC50 goes with a more potent degrader.

With `CNCCOCCc1ccc(NC(=O)OCc2ccc3c(c2)CN(C2CCC(=O)NC2=O)C3=O)cc1Cl` (centres unmarked) [IG-4], the IC50 with CAL51 cells [1] is over 10 µM. In addition, the Dmax with CAL51 cells [2] was 17.3 ± 0.107%.
Regarding `CNCCOCCc1ccc(NC(=O)NCc2ccc3c(c2)CN(C2CCC(=O)NC2=O)C3=O)cc1C(C)C` (centres unmarked) [IG-5], the IC50 with CAL51 cells [1] was determined as 6.86 µM. In the experiment with CAL51 cells [2], the half-maximal degradation concentration (DC50) turned out to be 1410 nM and the Dmax was 64.6 ± 2.56%.
For `CNCCOCCc1ccc(NC(=O)NCc2ccc3c(c2)CN(C2CCC(=O)NC2=O)C3=O)cc1SC` (centres unmarked) [IG-6, 1-((2-(2,6-dioxopiperidin-3-yl)-1-oxoisoindolin-5-yl)methyl)-3-(4-(2-(2-(methylamino)ethoxy)ethyl)-3-(methylthio)phenyl)urea], in that order: 7.51 µM, 834 ± 125 nM and 73.3 ± 9.98%.
In turn, `O=C1CCC(N2C(=O)c3ccc(NS(=O)(=O)c4ccccc4OC(F)(F)F)cc3C2=O)C(=O)N1` (centres unmarked) [IG-9, N-(2-(2,6-dioxopiperidin-3-yl)-1,3-dioxoisoindolin-5-yl)-2-(trifluoromethoxy)benzenesulfonamide] displayed an IC50 in the experiment with CAL51 cells [1] of 6.49 µM. In the experiment with CAL51 cells [2], this compound came in with a DC50 of 157 ± 46.5 nM and a Dmax of 83.8 ± 5.5%.
As to `Cc1ccc(NC(=O)CCc2ccc3c(c2)CN(C2CCC(=O)NC2=O)C3=O)cc1O` (centres unmarked) [IG-10, 3-(2-(2,6-dioxopiperidin-3-yl)-1-oxoisoindolin-5-yl)-N-(3-hydroxy-4-methylphenyl)propanamide], in the experiment with CAL51 cells [1], the half-inhibitory concentration (IC50) is over 10 µM. The Dmax in the experiment with CAL51 cells [2] worked out at 25.1 ± 3.27%.
Take `O=C1CCC(N2Cc3cc(NS(=O)(=O)c4ccccc4OC(F)(F)F)ccc3C2=O)C(=O)N1` (centres unmarked) [IG-11, N-(2-(2,6-dioxopiperidin-3-yl)-1-oxoisoindolin-5-yl)-2-(trifluoromethoxy) benzenesulfonamide]: the IC50 in the experiment on CAL51 cells [1] was over 10 µM. In the experiment with CAL51 cells [2], the Dmax was found to be 42 ± 9.54%.
On the same counts, the results for `Cc1ccc(NC(=O)OCc2ccc3c(c2)CN(C2CCC(=O)NC2=O)C3=O)cc1O` (centres unmarked) [IG-13, (2-(2,6-dioxopiperidin-3-yl)-1-oxoisoindolin-5-yl)methyl (3-hydroxy-4-methylphenyl)carbamate] are 3.04 µM and 38.8 ± 1.98%.
For `CNCCOCCc1ccc(NC(=O)NCc2ccc3c(c2)CN(C2CCC(=O)NC2=O)C3=O)cc1O` (centres unmarked) [IG-14, 1-((2-(2,6-dioxopiperidin-3-yl)-1-oxoisoindolin-5-yl)methyl)-3-(3-hydroxy-4-(2-(2-(methylamino)ethoxy)ethyl)phenyl)urea], in that order: over 10 µM and 22.7 ± 3.34%.
For the compound `Cc1ccc(NC(=O)NCc2ccc3c(c2)C(=O)N(C2CCC(=O)NC2=O)C3)cc1Cl` (centres unmarked) [IG-16, 1-(3-chloro-4-methylphenyl)-3-((2-(2,6-dioxopiperidin-3-yl)-3-oxoisoindolin-5-yl)methyl)urea], in the experiment on CAL51 cells [1], the IC50 was 0.444 µM. In addition, in the experiment on CAL51 cells [2], the half-maximal degradation concentration (DC50) worked out at 174 ± 106 nM and the Dmax was 91.7 ± 5.22%.
Compound `O=C1CCC(N2Cc3c(Nc4ccnc(Cc5ccc6c(c5)CCC6)n4)cccc3C2=O)C(=O)N1` (centres unmarked) [IG-19, 3-(4-((2-((2,3-dihydro-1H-inden-5-yl)methyl)pyrimidin-4-yl)amino)-1-oxoisoindolin-2-yl)piperidine-2,6-dione] yielded an IC50 in the experiment with CAL51 cells [1] of over 10 µM. In addition, the “Dmax (%) CAL51” value in the experiment on CAL51 cells [2] is “Not active”.
On the same counts, the results for `CNCCOCCc1ccc(NC(=O)NCc2ccc3c(c2)C(=O)N(C2CCC(=O)NC2=O)C3)cc1Cl` (centres unmarked) [IG-20, 1-(3-chloro-4-(2-(2-(methylamino)ethoxy)ethyl)phenyl)-3-((2-(2,6-dioxopiperidin-3-yl)-3-oxoisoindolin-5-yl)methyl)urea] are over 10 µM and “Not active”.
In the case of `Cc1ccc(NC(=O)NCc2cc(O)c3c(c2)CN(C2CCC(=O)NC2=O)C3=O)cc1Cl` (centres unmarked) [IG-24, 1-(3-chloro-4-methylphenyl)-3-((2-(2,6-dioxopiperidin-3-yl)-7-hydroxy-1-oxoisoindolin-5-yl)methyl)urea], in the experiment on CAL51 cells [1], the IC50 amounted to 0.412 µM.
Regarding `CC(C)(C)c1cccc(NC(=O)NCc2ccc3c(c2O)CN(C2CCC(=O)NC2=O)C3=O)c1` (centres unmarked) [IG-25, 1-(3-(tert-butyl)phenyl)-3-((2-(2,6-dioxopiperidin-3-yl)-4-hydroxy-1-oxoisoindolin-5-y1)methyl)urea], the IC50 with CAL51 cells [1] was 0.0432 µM. Besides, in the experiment on CAL51 cells [2], the DC50 worked out at 28.9 nM and the Dmax was found to be 89.6%.
Regarding `Cc1ccc(NC(=O)NCc2ccc3c(c2O)CN(C2CCC(=O)NC2=O)C3=O)cc1O` (centres unmarked) [IG-27, 1-((2-(2,6-dioxopiperidin-3-yl)-4-hydroxy-1-oxoisoindolin-5-yl)methyl)-3-(3-hydroxy-4-methylphenyl)urea], the half-maximal inhibitory concentration (IC50) with CAL51 cells [1] is over 10 µM.
Consider `Nc1ccc2c(c1OS(=O)(=O)c1ccccc1OC(F)(F)F)C(=O)N(C1CCC(=O)NC1=O)C2=O` (centres unmarked) [IG-29, 5-amino-2-(2,6-dioxopiperidin-3-yl)-1,3-dioxoisoindolin-4-yl 2-(trifluoromethoxy)benzenesulfonate], for which, in the experiment with CAL51 cells [1], the IC50 was over 10 µM.
For `Nc1ccc(OS(=O)(=O)c2ccccc2OC(F)(F)F)c2c1C(=O)N(C1CCC(=O)NC1=O)C2=O` (centres unmarked) [IG-30, 7-amino-2-(2,6-dioxopiperidin-3-yl)-1,3-dioxoisoindolin-4-yl 2-(trifluoromethoxy)benzenesulfonate], the IC50 in the experiment on CAL51 cells [1] is over 10 µM.
Still for that read-out and setting: in the case of `O=C1CCC(N2Cc3cc(CNC(=O)Nc4ccc(CCOCCN5CCOCC5)c(O)c4)ccc3C2=O)C(=O)N1` (centres unmarked) [IG-32, 1-((2-(2,6-dioxopiperidin-3-yl)-1-oxoisoindolin-5-yl)methyl)-3-(3-hydroxy-4-(2-(2-morpholinoethoxy)ethyl)phenyl)urea] it was over 10 µM; in that of `Cc1ccc(NC(=O)OCc2ccc3c(c2O)CN(C2CCC(=O)NC2=O)C3=O)cc1Cl` (centres unmarked) [IG-33, (2-(2,6-dioxopiperidin-3-yl)-4-hydroxy-1-oxoisoindolin-5-yl)methyl (3-chloro-4-methylphenyl)carbamate], over 10 µM; in that of `O=C1CCC(N2C(=O)c3cc(NS(=O)(=O)c4ccccc4OC(F)(F)F)cc(O)c3C2=O)C(=O)N1` (centres unmarked) [IG-34, N-(2-(2,6-dioxopiperidin-3-yl)-7-hydroxy-1,3-dioxoisoindolin-5-yl)-2-(trifluoromethoxy)benzenesulfonamide], over 10 µM.
In the experiment on CAL51 cells [1], `Cc1ccc(NC(=O)NCc2ccc3nnn(C4CCC(=O)NC4=O)c(=O)c3c2)cc1O` (centres unmarked) [IG-35, 1-((3-(2,6-dioxopiperidin-3-yl)-4-oxo-3,4-dihydrobenzo[d][1,2,3]triazin-6-yl)methyl)-3-(3-hydroxy-4-methylphenyl)urea] returned an IC50 of over 10 µM.
Same read-out and setting: in the case of `O=C1CCC(N2Cc3c(ccc(CNC(=O)Nc4cccc(S(F)(F)(F)(F)F)c4)c3O)C2=O)C(=O)N1` (centres unmarked) [IG-43, 1-((2-(2,6-dioxopiperidin-3-yl)-4-hydroxy-1-oxoisoindolin-5-yl)methyl)-3-(3-(pentafluoro-l6-sulfaneyl)phenyl)urea] it was 0.472 µM; in that of `O=C1CCC(N2Cc3c(Nc4ccnc(Nc5ccc6c(c5)CCC6)n4)ccc(O)c3C2=O)C(=O)N1` (centres unmarked) [IG-44, 3-(4-((2-((2,3-dihydro-1H-inden-5-yl)amino)pyrimidin-4-yl)amino)-7-hydroxy-1-oxoisoindolin-2-yl)piperidine-2,6-dione], over 10 µM; in that of `CNc1cc2c(cc1CNC(=O)Nc1ccc(C)c(Cl)c1)CN(C1CCC(=O)NC1=O)C2=O` (centres unmarked) [IG-45, 1-(3-chloro-4-methylphenyl)-3-((2-(2,6-dioxopiperidin-3-yl)-6-(methylamino)-1-oxoisoindolin-5-yl)methyl)urea], over 10 µM.
`O=C1CCC(N2C(=O)c3cc(O)c(NS(=O)(=O)c4ccccc4OC(F)(F)F)cc3C2=O)C(=O)N1` (centres unmarked) [IG-46, N-(2-(2,6-dioxopiperidin-3-yl)-6-hydroxy-1,3-dioxoisoindolin-5-yl)-2-(trifluoromethoxy)benzenesulfonamide] gave an IC50 in the experiment on CAL51 cells [1] of over 10 µM.
In turn, `O=C1CCC(N2Cc3c(ccc(CNC(=O)Nc4ccc(Br)c(Br)c4)c3O)C2=O)C(=O)N1` (centres unmarked) [IG-47, 1-(3,4-dibromophenyl)-3-((2-(2,6-dioxopiperidin-3-yl)-4-hydroxy-1-oxoisoindolin-5-yl)methyl)urea] registered an IC50 in the experiment on CAL51 cells [1] of 1.08 µM.
In turn, `CC(C)(C)c1ccc(NC(=O)NCc2ccc3c(c2O)CN(C2CCC(=O)NC2=O)C3=O)cc1Cl` (centres unmarked) [IG-48, 1-(4-(tert-butyl)-3-chlorophenyl)-3-((2-(2,6-dioxopiperidin-3-yl)-4-hydroxy-1-oxoisoindolin-5-yl)methyl)urea] showed a half-inhibitory concentration (IC50) with CAL51 cells [1] of 0.05 µM.
Still for that read-out and setting: under `CNCCOCCc1ccc(NC(=O)NCc2ccc3c(c2O)CN(C2CCC(=O)NC2=O)C3=O)cc1Cl` (centres unmarked) [IG-53, 1-(3-chloro-4-(2-(2-(methylamino)ethoxy)ethyl)phenyl)-3-((2-(2,6-dioxopiperidin-3-yl)-4-hydroxy-1-oxoisoindolin-5-yl)methyl)urea] stands over 30 µM.
